Source: US12459974B2, “Bicyclic peptide ligands specific for Nectin-4” (priority 2018, dated 2025)
*1 amine or outer side, *2 acyl side, *3 side chain or, on linkers, in order; H or OH if unused. Where a SMILES comes first, the peptide text is derived from it. Bridges are numbered along the chain shown (N, C = ends). Roman numbers before positions name the chains, in order. [ ]: non-standard residue; d: D form. The star is where a group is joined. ξ: configuration not given here. TATA = O=C(CC[*:1])N1CN(C(=O)CC[*:2])CN(C(=O)CC[*:3])C1; Dolaproine = CO[C@@H]([C@@H]1CCCN1)[C@@H](C)C(=O)O; X1 = CC[C@H](C)C(C(CC(=O)[*:2])OC)N(C)[*:1]; 1Nal = N[C@@H](Cc1cccc2ccccc12)C(=O)O; X3 = O=C(CCCC(=O)[*:2])NCCC(=O)[*:1]; PABC = O=C(OCc1ccc(N[*:1])cc1)[*:2]; Hyp = O=C(O)[C@@H]1C[C@@H](O)CN1; hArg = N=C(N)NCCCC[C@H](N)C(=O)O; Cit = NC(=O)NCCC[C@H](N)C(=O)O; X2 = CC(N*)[C@@H](O)c1ccccc1; ξNMeV = CNC(C(=O)O)C(C)C; ξV = CC(C)C(N)C(=O)O; Sar = CNCC(=O)O

Tests used:
HCT116 xenograft = assay: Example 9.2: in vivo efficacy in HCT116 xenograft in Balb/c nude mice; design: species or system Mus Musculus; settings: for Tumor volume trace over time / TGI / Tumor volume / T/C: iv; for Tumor volume trace over time / Tumor volume: mean ± SEM; for T/C: treated/control group average tumor volume
NCI-H292 xenograft = assay: Example 9.5: in vivo efficacy in NCI-H292 xenograft in Balb/c nude mice; design: species or system Mus Musculus
[1] = 3 mpk, biw, day 0 after the start of treatment
[2] = 3 mpk, qw, day 0 after the start of treatment
[3] = 5 mpk, qw, day 0 after the start of treatment

## CC[C@H](C)C(C(CC(=O)N1CCC[C@H]1[C@H](OC)[C@@H](C)C(=O)NC(C)[C@@H](O)c1ccccc1)OC)N(C)C(=O)[C@@H](NC(=O)C(C(C)C)N(C)C(=O)OCc1ccc(NC(=O)[C@H](CCCNC(N)=O)NC(=O)C(NC(=O)CCCC(=O)NCCC(=O)N(C)CC(=O)N(C)CC(=O)N(C)CC(=O)N(C)CC(=O)N(C)CC(=O)N(C)CC(=O)N(C)CC(=O)N(C)CC(=O)N(C)CC(=O)N(C)CC(=O)N[C@H]2CSCCC(=O)N3CN4CN(C3)C(=O)CCSC[C@H](NC(=O)[C@@H](CC(=O)O)NC(=O)[C@H](Cc3cccc5ccccc35)NC(=O)[C@@H]3CCCN3C2=O)C(=O)N[C@@H](CCSC)C(=O)N[C@@H](CCCCNC(=N)N)C(=O)N[C@@H](CC(=O)O)C(=O)N[C@@H](Cc2c[nH]c3ccccc23)C(=O)N[C@@H](CO)C(=O)N[C@@H]([C@@H](C)O)C(=O)N2CCC[C@H]2C(=O)N2C[C@H](O)C[C@H]2C(=O)N[C@@H](Cc2c[nH]c3ccccc23)C(=O)N[C@H](C(N)=O)CSCCC4=O)C(C)C)cc1)C(C)C (stereo partly drawn) [BCY8245, MMAE-PABC-Cit-Val-Glutaryl-BCY8234] (I: [Sar][Sar][Sar][Sar][Sar][Sar][Sar][Sar][Sar][Sar]CP[1Nal][dD]CM[hArg]DWSTP[Hyp]WC-NH2 / II: [ξV][Cit][PABC][ξNMeV]V[X1][Dolaproine]-X2; linker I:11-I:15-I:25 via TATA; linker I:N-II:N via X3)
HCT116 xenograft; 5 mg/kg qw, day 14
  Tumor volume (TV): 134 mm^3
HCT116 xenograft; [1]
  Tumor volume trace over time: 166 ± 18 mm^3
HCT116 xenograft; 3 mpk, biw, day 2 after the start of treatment
  Tumor volume trace over time: 229 ± 40 mm^3
HCT116 xenograft; 3 mpk, biw, day 4 after the start of treatment
  Tumor volume trace over time: 215 ± 42 mm^3
HCT116 xenograft; 3 mpk, biw, day 7 after the start of treatment
  Tumor volume trace over time: 213 ± 49 mm^3
HCT116 xenograft; 3 mpk, biw, day 9 after the start of treatment
  Tumor volume trace over time: 213 ± 48 mm^3
HCT116 xenograft; 3 mpk, biw, day 12 after the start of treatment
  Tumor volume trace over time: 206 ± 55 mm^3
HCT116 xenograft; 3 mpk, biw, day 14
  TGI: 94.9%
  Tumor volume: 197 ± 50 mm^3
  T/C: 25.6%
HCT116 xenograft; 3 mpk, biw, day 14 after the start of treatment
  Tumor volume trace over time: 197 ± 50 mm^3
HCT116 xenograft; [2]
  Tumor volume trace over time: 167 ± 11 mm^3
HCT116 xenograft; 3 mpk, qw, day 2 after the start of treatment
  Tumor volume trace over time: 209 ± 13 mm^3
HCT116 xenograft; 3 mpk, qw, day 4 after the start of treatment
  Tumor volume trace over time: 227 ± 17 mm^3
HCT116 xenograft; 3 mpk, qw, day 7 after the start of treatment
  Tumor volume trace over time: 269 ± 33 mm^3
HCT116 xenograft; 3 mpk, qw, day 9 after the start of treatment
  Tumor volume trace over time: 324 ± 39 mm^3
HCT116 xenograft; 3 mpk, qw, day 12 after the start of treatment
  Tumor volume trace over time: 348 ± 27 mm^3
HCT116 xenograft; 3 mpk, qw, day 14
  TGI: 57.1%
  Tumor volume: 425 ± 28 mm^3
  T/C: 55.2%
HCT116 xenograft; 3 mpk, qw, day 14 after the start of treatment
  Tumor volume trace over time: 425 ± 28 mm^3
HCT116 xenograft; [3]
  Tumor volume trace over time: 166 ± 35 mm^3
HCT116 xenograft; 5 mpk, qw, day 2 after the start of treatment
  Tumor volume trace over time: 201 ± 42 mm^3
HCT116 xenograft; 5 mpk, qw, day 4 after the start of treatment
  Tumor volume trace over time: 176 ± 15 mm^3
HCT116 xenograft; 5 mpk, qw, day 7 after the start of treatment
  Tumor volume trace over time: 183 ± 17 mm^3
HCT116 xenograft; 5 mpk, qw, day 9 after the start of treatment
  Tumor volume trace over time: 170 ± 16 mm^3
HCT116 xenograft; 5 mpk, qw, day 12 after the start of treatment
  Tumor volume trace over time: 125 ± 18 mm^3
HCT116 xenograft; 5 mpk, qw, day 14
  TGI: 105.2%
  Tumor volume: 134 ± 12 mm^3
  T/C: 17.4%
HCT116 xenograft; 5 mpk, qw, day 14 after the start of treatment
  Tumor volume trace over time: 134 ± 12 mm^3
HCT116 xenograft; mouse, in vivo
  tumor response (in words): tumor growth is restrained by BCY8245 but the tumor does not undergo regression
NCI-H292 xenograft; 3 mg/kg biw, day 14
  TGI: 112.2%
  Tumor volume (TV): 65 mm^3
NCI-H292 xenograft; 3 mg/kg qw, day 14
  TGI: 101.4%
  Tumor volume (TV): 149 mm^3
NCI-H292 xenograft; 5 mg/kg qw, day 14
  TGI: 109.8%
  Tumor volume (TV): 83 mm^3
NCI-H292 xenograft; [1]
  Tumor volume: 162 mm^3
NCI-H292 xenograft; 3 mpk, biw, day 2
  Tumor volume: 243 mm^3
NCI-H292 xenograft; 3 mpk, biw, day 4
  Tumor volume: 211 mm^3
NCI-H292 xenograft; 3 mpk, biw, day 7
  Tumor volume: 101 mm^3
NCI-H292 xenograft; 3 mpk, biw, day 9
  Tumor volume: 100 mm^3
NCI-H292 xenograft; 3 mpk, biw, day 11
  Tumor volume: 87 mm^3
NCI-H292 xenograft; 3 mpk, biw, day 14
  T/C: 6.9%
  TGI: 112.2%
  Tumor Volume (Mean ± SEM): 65 ± 3 mm^3
  Tumor volume: 65 mm^3
NCI-H292 xenograft; [2]
  Tumor volume: 160 mm^3
NCI-H292 xenograft; 3 mpk, qw, day 2
  Tumor volume: 220 mm^3
NCI-H292 xenograft; 3 mpk, qw, day 4
  Tumor volume: 266 mm^3
NCI-H292 xenograft; 3 mpk, qw, day 7
  Tumor volume: 218 mm^3
NCI-H292 xenograft; 3 mpk, qw, day 9
  Tumor volume: 167 mm^3
NCI-H292 xenograft; 3 mpk, qw, day 11
  Tumor volume: 161 mm^3
NCI-H292 xenograft; 3 mpk, qw, day 14
  T/C: 15.8%
  TGI: 101.4%
  Tumor Volume (Mean ± SEM): 149 ± 43 mm^3
  Tumor volume: 149 mm^3
NCI-H292 xenograft; [3]
  Tumor volume: 160 mm^3
NCI-H292 xenograft; 5 mpk, qw, day 2
  Tumor volume: 176 mm^3
NCI-H292 xenograft; 5 mpk, qw, day 4
  Tumor volume: 191 mm^3
NCI-H292 xenograft; 5 mpk, qw, day 7
  Tumor volume: 105 mm^3
NCI-H292 xenograft; 5 mpk, qw, day 9
  Tumor volume: 82 mm^3
NCI-H292 xenograft; 5 mpk, qw, day 11
  Tumor volume: 91 mm^3
NCI-H292 xenograft; 5 mpk, qw, day 14
  T/C: 8.8%
  TGI: 109.8%
  Tumor Volume (Mean ± SEM): 83 ± 8 mm^3
  Tumor volume: 83 mm^3
NCI-H292 xenograft; mouse, in vivo
  tumor response (in words): causes regression of the tumor
